Laboratory results as given in patent publication US5340806A, “Composition containing organogermanium compound and immunity adjusting agent comprising the composition” (Sanwa Kagaku Kenkyusho Co., Ltd., priority 1984, dated 1994).

Columns and labels:
[1] = test system: spleen cells (PFC), SRBC sensitized mice; test: Antibody production ability in normal mouse (spleen cell PFC); assay type: in vivo, ICR mice; conditions: 0.1, 1.0 and 10 mg/kg oral
Procedure: To each group of ICR mice (age, 5 weeks), 2×10^8 and 2 ×10^7 of sheep red blood corpuscles (SRBC), as an […], were venously injected for sensitization in a tail vein of the mice. Then, immediately, the organogermanium compound dissolved in 4% cattle serum albumin solution was orally dosed to the sensitized mice in an amount of 0.1, 1.0 and 10 mg/kg, respectively. After 4 days from the sensitization, spleen cells were extracted to measure the number of PFC therein, which was used as an index of the antibody productivity.

[2] = parameters: species or system human; conditions: in vivo
Procedure: A capsule containing various amount of effective organogermanium compound were dosed to each of healthy adult persons to check kinetics of the drug. […] The excretion ratio of the drug in urine was 30-50% in cases of any dose.
Therefore, it has been judged that the influence of the hepatitis on pharmakinetics of the drug is small.

chronic B hepatitis = test: Long term dosing in chronic B hepatitis (In Vivo Utilization Example 4); parameters: species or system human patients; conditions: for Liver tissue improvement: Ballooning of cell: 4 patients; for Liver tissue improvement: Bridging necrosis: 9 patients; for Liver tissue improvement: Fatty degeneration: 11 patients; for Liver tissue improvement: Moderation of lobule: 15 patients; for Glisson's capsule improvement: Piecemeal necrosis: 17 patients; for Glisson's capsule improvement: Fibrosis: 23 patients; for Glisson's capsule improvement: Round cell infiltration / Liver tissue improvement: Cobwebby necrosis / Liver tissue improvement: Degenerative necrosis in cell / Liver tissue improvement: Mobilization image of Kupfer cell: 24 patients
Procedure: A capsule containing the organogermanium compound was dosed to patients infected with chronic B hepatitis over a long period of time at a rate of 30 mg/day/body as the effective compound to check safety and effectiveness.
(a) Number of patients for analysis: 34 persons.
(b) Mean dosing period of time: 55 weeks.
(c) Number of patients who continuously dose over 48 weeks: 26 persons.

LD50 for beagle dog = conditions: in vivo

Substance: 3-oxygermylpropionic acid [Compound No. 1]
- spleen cell PFC ([1]; SRBC 2×10^7, FIG. 8b): increase it
- spleen cell PFC ([1]; SRBC 2×10^8, FIG. 8a): tendancy to decrease spleen cell PFC
- excretion ratio of the drug in urine ([2]; human, po): 30-50%
- time to maximum plasma concentration ([2]; human, po): 3 h
- AUC versus dose [2]: AUC increases as the amount of dose increases
- AUC, Cmax and excretion ratio in urine, hepatitis patients versus healthy persons [2]: tended to increase
- plasma concentration on first day versus 7th day [2]: same level
- tendency to accumulate [2]: does not show a tendency to accumulate
- ratio of improvement in functions of liver (at least slight), judgement of doctor in charge (chronic B hepatitis; 30 mg/day/body, mean 55 weeks): 63%
- ratio of improvement in functions of liver (at least slight), secondary judgement of committee (chronic B hepatitis; 30 mg/day/body, mean 55 weeks): 59%
- patients changed to SC (seroconversion) (chronic B hepatitis; among 23 HBe antigen positive): 3 patients
- patients changed to SN (seronegative) (chronic B hepatitis; among 23 HBe antigen positive): 3 patients
- ratio of disappearance of HBe antigen (chronic B hepatitis; among 23 HBe antigen positive): 26%
- Liver tissue improvement: Evaluation (chronic B hepatitis; ≥middle, 3/24): 12.5%
- Liver tissue improvement: Ballooning of cell (chronic B hepatitis; ≥middle): 0%
- Liver tissue improvement: Bridging necrosis (chronic B hepatitis; ≥middle): 22.2%
- Liver tissue improvement: Fatty degeneration (chronic B hepatitis; ≥middle): 0%
- Liver tissue improvement: Moderation of lobule (chronic B hepatitis; ≥middle): 0%
- Glisson's capsule improvement: Piecemeal necrosis (chronic B hepatitis; ≥middle): 17.6%
- Glisson's capsule improvement: Fibrosis (chronic B hepatitis; ≥middle): 8.7%
- Glisson's capsule improvement: Round cell infiltration (chronic B hepatitis; ≥middle): 0%
- Liver tissue improvement: Cobwebby necrosis (chronic B hepatitis; ≥middle): 16.7%
- Liver tissue improvement: Degenerative necrosis in cell (chronic B hepatitis; ≥middle): 16.7%
- Liver tissue improvement: Mobilization image of Kupfer cell (chronic B hepatitis; ≥middle): 16.7%
- Liver tissue improvement: Ballooning of cell (chronic B hepatitis; ≥slight): 50.0%
- Liver tissue improvement: Bridging necrosis (chronic B hepatitis; ≥slight): 33.3%
- Liver tissue improvement: Evaluation (chronic B hepatitis; ≥slight, 10/24): 41.7%
- Liver tissue improvement: Fatty degeneration (chronic B hepatitis; ≥slight): 9.1%
- Liver tissue improvement: Moderation of lobule (chronic B hepatitis; ≥slight): 6.7%
- Glisson's capsule improvement: Piecemeal necrosis (chronic B hepatitis; ≥slight): 29.4%
- Glisson's capsule improvement: Fibrosis (chronic B hepatitis; ≥slight): 17.4%
- Glisson's capsule improvement: Round cell infiltration (chronic B hepatitis; ≥slight): 12.5%
- Liver tissue improvement: Cobwebby necrosis (chronic B hepatitis; ≥slight): 37.5%
- Liver tissue improvement: Degenerative necrosis in cell (chronic B hepatitis; ≥slight): 37.5%
- Liver tissue improvement: Mobilization image of Kupfer cell (chronic B hepatitis; ≥slight): 41.7%
- 15 mg/body as fraction of LD50 for beagle dog (LD50 for beagle dog): 1/12000
